Data: patent publication US10512600B2, “RNA complexes that inhibit melanin production” (OliX Pharmaceuticals, Inc., priority 2015, dated 2019)
Like-named read-outs stand apart in the source and are kept apart here. Oligonucleotides are written 5' to 3', each unit as a sugar letter and its base; * is a phosphorothioate linkage, no mark a phosphodiester; rarer units and linkages stand in square brackets, end groups in braces. Plain capitals give the bases only. {Chol} = cholesterol conjugate; m = 2'-O-methyl; r = 2'-OH (RNA)

Experiments:
HaCaT cells [1] = assay: Cytotoxicity (LDH, CytoTox96) and cell viability (CCK-8) in HaCaT cells; conditions: 24 hours, LDH and CCK-8 assays, FIG. 6
Procedure: (§5) One day before treatment with cp-asiRNA(4)-1, 5.0×10^3MNT-1 cells or 1.0×10^4 HaCaT cells were seeded into 96 well plates. Immediately before treatment, the cells were washed with 1×DPBS buffer (Gibco), and then cultured in the presence of 1 μM or 3 μM of cp-asiRNATYR(4)-1 in OPTI-MEM buffer for 24 hours, at which point the cytotoxicity level was measured using a CytoTox96 Non-Radio Cytotoxicity assay (Promega) according to manufacturer's instructions. The media was then replaced with the serum-containing media and cell viability was measured using a cell counting kit-8 (Enzo) according to manufacturer's instructions.

tyrosinase protein [2] = assay: Western blot of tyrosinase protein expression in treated MNT-1 cells; assay type: cell-based, human
Procedure: (§1) MNT-1 cells were cultured in Minimum Essential Media (Welgene) containing 20% fetal bovine serum (Gibco), 100 μg/ml penicillin/streptomycin, 10% 200 mM HEPES (Welgene) and 10% Dulbecco's modified Eagle's medium (Welgene). One day prior to treatment, 6.5×10^4MNT-1 cells were seeded in 12-well plates.
(§2) After 72 hours of cp-asiTYR(4)-1 incubation, the level of tyrosinase protein expression was determined via western blot. Briefly, the treated MNT-1 cells were lysed with RIPA buffer (GE). Fifteen μg of the total protein extract were loaded onto a 12% SDS-PAGE gel and electrophoresed at 120 V. After electrophoresis, the proteins were transferred to PVDF membrane (Bio-rad) already activated by methanol (Merck) for 1 hour at 300 mA. The membrane was blocked for 1 hour at the room temperature with 5% skim milk (Seoul Milk) and then incubated overnight at 4° C. in 5% skim milk containing anti-tyrosinase antibody (Santa Cruz) and anti-β-actin antibody (Santa Cruz). The membrane was then washed with 1×TBST for 10 minutes three times and was incubated for 1 hour at the room temperature in 5% skim milk with HRP-conjugated secondary antibody. The membrane was washed with 1×TBST for 10 minutes and treated with 1×ECL for 1 minute. The tyrosinase and β-actin bands were then imaged using a Chemidoc instrument (Bio-rad).
as §2, with “The level” for “After 72 hours of cp-asiTYR(4)-1 incubation, the level”, “expression by MNT-1 cells after treatment with 1 μM and 3 μM cp-asiRNAs” for “expression”, “the transfected” for “the treated”
The level of tyrosinase protein expression by MNT-1 cells after treatment with 1 μM, 0.6 μM, 0.3 μM and 0.1 μM cp-asiRNAs was determined via western blot. Briefly, the transfected MNT-1 cells were lysed with RIPA buffer (GE). […]

MNT-1 cells [3] = assay: Melanin content assay in treated MNT-1 cells; assay type: cell-based, human; conditions: 1 μM, 72 hours
Procedure: as §1
(§3) MNT-1 cells treated with cp-asiTYR(4)-1 as described above were tested for melanin content. After 72 hours of incubation in the presence of cp-asiTYR, the MNT-1 cells were collected, lysed with RIPA buffer (GE) and centrifuged at 13000 rpm. The resulting melanin pellet was dissolved in 100 μL of 1N NaOH (containing 10% DMSO) at 85° C. for 15 minutes and light absorption and melanin production were measured.
as §3, with “cp-asiTYR(4) 21AS-1 or cp-asiTYR(4) 19AS-5” for “cp-asiTYR(4)-1”
MNT-1 cells were cultured in Minimum Essential Media (Welgene) containing 20% fetal bovine serum (Gibco), 100 μg/ml penicillin/streptomycin, 10% 200 mM HEPES (Welgene) and 10% Dulbecco's modified Eagle's medium (Welgene). One day prior to treatment, 6.5×10^4MNT-1 cells were seeded in 12-well plates. Four hours prior to treatment, the cell media was replaced with 900 μL of FBS-containing media. The PF6-complexed asiRNA or lasiRNA was added to the cells and the cells were incubated for 24 hours, at which point the media was replaced. Tyrosinase mRNA levels were measured using real-time RT-PCR 24 hours after media replacement.
To test the treated MNT-1 cells for tyrosinase protein expression and melanin production, western blot and melanin content assays were performed as described above 48 hours after media replacement.

MNT-1 cells [4] = assay: Color change (lightening) of MNT-1 cell pellets; assay type: cell-based, human; conditions: 1 μM or 3 μM, 72 hours, FIG. 5
Procedure: as §1
After 72 hours, cells were pelleted and the color change of the cells was observed.

MNT-1 cells [5] = assay: Cytotoxicity (LDH, CytoTox96) and cell viability (CCK-8) in MNT-1 cells; assay type: cell-based, human; conditions: 24 hours, LDH and CCK-8 assays, FIG. 6
Procedure: as §5

[6] = test system: MEL-300-B reconstructed skin model; assay: Light microscopy of melanocytes in reconstructed skin model MEL-300-B; assay type: cell-based; conditions: 5 μM every day for 13 days, day 14, light microscopy
Procedure: (§4) Tyrosinase expression and melanin level was analyzed in an cp-asiTYR#4-1 treated 3-D skin model. MEL-300-B (MatTek), a reconstructed skin model, was used in this study. MEL-300-B was stabilized in EPI-100-NMM-113 media 24 hours before treatment with cp-asiTYR#4-1. […] MEL-300-B samples were treated with cp-asiTYR#4-1 every day for 13 days (final concentration=5 μM) by adding cp-asiTYR#4-1 directly to the media. As a control, other MEL-300-B samples were treated with kojic acid (Sigma, 2% final) as depicted in FIG. 14(a). The samples were harvested at day 14 and the melanocytes in the sample were analyzed using light microscopy. […] Melanin level in each sample was analyzed using Fontana-Massons staining.

[7] = test system: MEL-300-B reconstructed skin model; assay: Fontana-Massons staining for melanin in reconstructed skin model MEL-300-B; assay type: cell-based; conditions: 5 μM every day for 13 days, day 14, Fontana-Massons staining
Procedure: as §4

tyrosinase mRNA = assay: Tyrosinase mRNA level in reconstructed skin model MEL-300-B by real-time PCR; assay type: cell-based; conditions: 5 μM every day for 13 days, day 14, FIG. 14(d)
Procedure: as §4
In order to analyze mRNA level at day 14, samples were harvested in Isol-RNA lysis reagent (5PRIME) and homogenized by using a homogenizer (IKA). Total RNA from the each sample was extracted. For each sample, 500 ng of the extracted RNA was used for cDNA synthesis using the high-capacity cDNA reverse transcription kit (Applied Biosystems) according to the manufacturer's instructions. Quantitative real-time PCR was then performed using the StepOne real-time PCR system (Applied Biosystems). Amplification of the tyrosinase cDNA was detected using a power SYBR green PCR master Mix (Applied Biosystems). GAPDH was amplified as an internal control.

tyrosinase protein [8] = assay: Western blot of tyrosinase protein in reconstructed skin model MEL-300-B; assay type: cell-based; conditions: 5 μM every day for 13 days, day 14, FIG. 14e
Procedure: as §4
Protein level analysis was conducted as using western blot. Harvested samples in RIPA buffer (GE) were homogenized by using homogenizer (IKA) and protein from the each sample was obtained. Fifteen micrograms of the total protein extract were loaded onto a 12% SDS-PAGE gel and electrophoresed at 120 V. After electrophoresis, the proteins were transferred to PVDF membrane (Bio-rad) that had been previously activated with methanol (Merck) for 1 hour at 300 mA. The membrane was blocked for 1 hour at the room temperature with 5% skim milk (Seoul Milk) and then incubated overnight at 4° C. in 5% skim milk containing anti-tyrosinase antibody (Santa Cruz) and anti-β-actin antibody (Santa Cruz). […]

[9] = test system: MEL-300-B reconstructed skin model; assay: Melanin content assay in reconstructed skin model MEL-300-B; assay type: cell-based; conditions: 5 μM every day for 13 days, day 14, FIG. 14(f)
Procedure: as §4
To test melanin content, samples were harvested at day 14, lysed with RIPA buffer (GE) and centrifuged at 13000 rpm. The resulting pellet was dissolved in 100 μL of 1N NaOH (containing 10% DMSO) at 85° C. for 15 minutes and light absorption and melanin production were measured.

HaCaT cells [10] = test system: HaCaT cells
Procedure: as §5

Compound: OC[C@H]1O[C@@H](Oc2ccc(O)cc2)[C@H](O)[C@@H](O)[C@@H]1O [arbutin]
- cytotoxicity / cell viability (HaCaT cells [1]): cytotoxicity was observed

Compound: cp-asiTYR(4)-1: S: GCUGACAGGAGAUG*A*A*cholesterol (SEQ ID NO: 131); AS: UUCAUCUCCUGUCAGCU*U*C*U*G (SEQ ID NO: 132) (sense GCUGACAGGAGAUGAA; antisense UUCAUCUCCUGUCAGCUUCUG; siRNA; sense: linkages o13 s2 (s phosphorothioate, o phosphodiester), 3' *{Chol}, sugars by position and methylation of C not given here; antisense: linkages o16 s4 (s phosphorothioate, o phosphodiester), sugars by position and methylation of C not given here)
- tyrosinase protein inhibition (tyrosinase protein [2]; 1 μM or 3 μM, 72 hours, without transfection vehicle, FIG. 3): ≥ 70%
- relative inhibitory activity on tyrosinase protein (tyrosinase protein [2]; 1 μM to 0.1 μM, FIG. 10): slightly higher inhibitory activity than cp-asiTYR(4) 19AS-7
- tyrosinase inhibition ability compared with other tyrosinase inhibitors (tyrosinase protein [2]; 72 hours, western blot, FIG. 3): higher efficiency in the tyrosinase inhibition ability than other tyrosinase inhibitors such as Hydroquinone and Arbutin
- inhibition in melanin production compared with hydroquinone and arbutin (MNT-1 cells [3]; FIG. 4): higher than when treated with compounds commonly used for melanin production, including hydroquinone (20 μM) and arbutin (2 mM)
- inhibition in melanin production (MNT-1 cells [3]; FIG. 9): ~50%
- inhibition in melanin production compared with arbutin (MNT-1 cells [3]; FIG. 9): higher than the inhibition shown in MNT-1 cells treated with 2 mM arbutin
- inhibition in melanin production (MNT-1 cells [3]; without transfection vehicle, FIG. 4): greater than 60%
- color of treated cells (MNT-1 cells [4]): lighter than untreated MNT-1 control cells (NT), hydroquinone treated cells and arbutin treated cells
- cytotoxicity / cell viability (MNT-1 cells [5]): no cytotoxicity or loss of cell viability was observed
- level of melanocytes [6]: reduced the level of melanocytes
- level of melanin [7]: reduced the level of melanin
- level of tyrosinase mRNA (tyrosinase mRNA): reduced the level of tyrosinase mRNA
- tyrosinase protein level (tyrosinase protein [8]): potent knockdown of tyrosinase protein
- melanin level (melanin content) [9]: reduced melanin level
- cytotoxicity / cell viability (HaCaT cells [10]): no cytotoxicity or loss of cell viability was observed

Compound: cp-asiTYR(4) 19AS-5: S: GCUGACAGGAGAUG*A*A*cholesterol (SEQ ID NO: 131); AS: UUCAUCUCCUGUCAG*C*mU*mU*mC (SEQ ID NO: 160) (sense rGrCrUrGrArCrArGrGrArGrArUrG*rA*rA*{Chol}; antisense rUrUrCrArUrCrUrCrCrUrGrUrCrArG*rC*mU*mU*mC; siRNA)
- relative inhibitory activity on tyrosinase protein (tyrosinase protein [2]; 1 μM and 3 μM, FIG. 8): slightly higher inhibitory activity than cp-asiTYR(4) 21AS-1
- inhibition in melanin production (MNT-1 cells [3]; FIG. 9): ~50%
- inhibition in melanin production compared with arbutin (MNT-1 cells [3]; FIG. 9): higher than the inhibition shown in MNT-1 cells treated with 2 mM arbutin

Compound: Oc1ccc(O)cc1 [hydroquinone]
- cytotoxicity / cell viability (HaCaT cells [1]): cytotoxicity was observed
